Source: ChEMBL document CHEMBL4725296, “The novel HOCl fluorescent probe CAN induced A549 apoptosis by inhibiting chlorination activity of MPO” (Bioorg Med Chem Lett, 2020)
Calls of active or inactive are those of the source. No cut-off for these calls is given here.

How the values were obtained:
A549 [1] = experiment: Antitumor activity against human A549 cells treated chicken chorioallantoic membrane assessed as reduction in tumour mass at 200 uM measured after 3 to 8 days; format: functional, cell-based; details: time day 3-8
A549 [2] = experiment: Antitumor activity against human A549 cells treated chicken chorioallantoic membrane assessed as increase in apoptosis cells in tumour mass at 200 uM by TUNEL staining based confocal microscopic analysis; format: functional, cell-based
RAW264.7 [3] = experiment: Cytotoxicity against mouse RAW264.7 cells assessed as reduction in cell viability at 1 uM incubated for 12 hrs; format: cell-based; details: raw264.7, 12 h
RAW264.7 [4] = experiment: Cytotoxicity against mouse RAW264.7 cells assessed as reduction in cell viability at 5 uM incubated for 12 hrs relative to control; format: cell-based; details: raw264.7, 12 h
RAW264.7 [5] = experiment: Cytotoxicity against mouse RAW264.7 cells assessed as reduction in cell viability at 10 uM incubated for 12 hrs relative to control; format: cell-based; details: raw264.7, 12 h
RAW264.7 [6] = experiment: Photostability of compound in mouse RAW264.7 cells at 1 uM measured for 10 to 120 secs; format: ADME, cell-based; details: raw264.7, 1 µM, time 10-120 sec
A549 [7] = experiment: Induction of morphological changes in human A549 cells assessed as appearance of round shaped cells at 1 uM incubated for 48 hrs; format: functional, cell-based
A549 [8] = experiment: Cytotoxicity against human A549 cells assessed as reduction in cell growth at 1 to 10 uM incubated for 24 to 48 hrs; format: functional, cell-based; details: dose microM 1-10, time hrs 24-48
A549 [9] = experiment: Cytotoxicity against human A549 cells assessed as reduction in cell growth incubated for 24 to 48 hrs; format: functional, cell-based
A549 [10] = experiment: Induction of necrosis in human A549 cells by LDH assay; format: functional, cell-based
A549 [11] = experiment: Induction of morphological changes in human A549 cells assessed as nuclear condensation at 0.5 to 10 uM incubated for 48 hrs by AO and Hoechst 33258 staining based assay; format: functional, cell-based; details: dose microM 0.5-10, time 48.0 hrs
A549 [12] = experiment: Induction of morphological changes in human A549 cells assessed as nuclear fragmentation at 0.5 to 10 uM incubated for 48 hrs by AO and Hoechst 33258 staining based assay; format: functional, cell-based; details: dose microM 0.5-10, time 48.0 hrs
A549 [13] = experiment: Induction of apoptosis in human A549 cells assessed as increase in cleaved PARP1 level incubated for 24 hrs by Western blot analysis; format: functional, cell-based
HUVEC = experiment: Cytotoxicity against HUVEC assessed as reduction in cell viability; format: cell-based; details: human
A549 [14] = experiment: Antitumor activity against human A549 cells treated chicken chorioallantoic membrane assessed as reduction in tumour mass at 50 to 100 uM measured after 3 to 8 days; format: functional, cell-based; details: dose microM 50-100, time day 3-8
A549 [15] = experiment: Antitumor activity against human A549 cells treated chicken chorioallantoic membrane assessed as increase in apoptosis cells in tumour mass at 50 to 100 uM by TUNEL staining based confocal microscopic analysis; format: functional, cell-based; details: dose microM 50-100
Chorioallantoic membrane [16] = experiment: Induction of angiogenesis in chicken chorioallantoic membrane at 50 to 100 uM by CAM assay; parameters: species or system Gallus gallus; details: dose 50-100 µM
Chorioallantoic membrane [17] = experiment: Induction of angiogenesis in chicken chorioallantoic membrane at 200 uM by CAM assay; parameters: species or system Gallus gallus
[18] = target: T1, Myeloperoxidase (Homo sapiens) (UniProt P05164); experiment: Effect on MPO in human A549 cells assessed as reduction in chlorination activity at 10 uM measured after 3 to 12 hrs by fluorescence assay; format: cell-based; details: filed as modulator, time hrs 3-12
T1 sequence (whole entry): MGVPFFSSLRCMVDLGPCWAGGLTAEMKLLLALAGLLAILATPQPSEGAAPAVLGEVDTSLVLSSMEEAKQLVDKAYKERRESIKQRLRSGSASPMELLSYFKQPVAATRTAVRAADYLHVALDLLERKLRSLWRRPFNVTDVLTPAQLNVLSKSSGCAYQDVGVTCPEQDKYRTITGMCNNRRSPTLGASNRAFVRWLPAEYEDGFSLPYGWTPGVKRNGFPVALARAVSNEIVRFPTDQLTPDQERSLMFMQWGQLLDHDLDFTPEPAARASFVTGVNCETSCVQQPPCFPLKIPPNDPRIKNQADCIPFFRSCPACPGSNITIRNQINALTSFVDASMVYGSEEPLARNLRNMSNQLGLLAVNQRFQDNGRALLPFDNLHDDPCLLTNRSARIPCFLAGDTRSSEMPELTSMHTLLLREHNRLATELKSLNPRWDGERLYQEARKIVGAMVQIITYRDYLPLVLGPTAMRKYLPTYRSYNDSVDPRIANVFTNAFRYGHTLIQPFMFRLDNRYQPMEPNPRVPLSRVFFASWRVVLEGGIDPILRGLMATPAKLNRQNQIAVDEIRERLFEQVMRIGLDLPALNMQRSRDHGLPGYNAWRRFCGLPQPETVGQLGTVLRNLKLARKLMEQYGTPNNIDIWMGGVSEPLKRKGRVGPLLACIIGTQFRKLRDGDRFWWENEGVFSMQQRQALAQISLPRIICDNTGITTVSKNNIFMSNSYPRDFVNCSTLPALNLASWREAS

[19] = target: T1, Myeloperoxidase (Homo sapiens); experiment: Effect on MPO in human A549 cells assessed as reduction in peroxidation activity at 10 uM measured after 3 to 12 hrs by fluorescence assay; format: cell-based; details: filed as modulator, time hrs 3-12
[20] = Drug uptake in LPS stimulated mouse RAW264.7 cells assessed as increase in HOCL mediated fluorescence intensity at 1 uM after 1 hr by confocal microscopic analysis; format: ADME; details: raw264.7, 1 h

For `O=c1[nH]cc(F)c(=O)[nH]1`, the Activity (A549 [1]) was “Active” and the Activity (A549 [2]) was “Active”.

With `CCN(CC)c1ccc2cc(C3Nc4cccc5cccc(c45)N3)c(=O)oc2c1` the Activity (RAW264.7 [3]) was “Non-Toxic”, the Activity (RAW264.7 [4]) was 61% and the Activity (RAW264.7 [5]) was 50.5%. For the same molecule, the Stabilty (RAW264.7 [6]) was “Stable”, the Activity (A549 [7]) was “Active” and the Activity (A549 [8]) was “Active”. The IC50 (A549 [9]) was 4.3 µM, the Activity (A549 [10]) was “inactive” and the Activity (A549 [11]) was “Active”. The Activity (A549 [12]) was “Active”, the Activity (A549 [13]) was “Active” and the Activity (HUVEC) was “Non-Toxic”. The Activity (A549 [14]) was “Active”, the Activity (A549 [15]) was “Active” and the Activity (Chorioallantoic membrane [16]) was “Non-Toxic”. For the same molecule, the Activity (Chorioallantoic membrane [17]) was “Non-Toxic”, the Activity [18] was “Active” and the Activity [19] was “Active”. For the same molecule, the Drug uptake [20] was “Active”.
